Drawing on patent US20240368122A1, “JAK2 INHIBITORS AND METHODS OF USE THEREOF” (RELAY THERAPEUTICS, INC., priority 2021, published 2024), this text covers Kd and IC50 for 36 compounds.

For assay [1], the target named is T1, JAK2 JH2 WT (V536-D812) [W659A, W777A, F794H solubilizing mutations] (Homo sapiens, UniProt O60674, F794H/W659A/W777A).
T1 construct: **JAK2 JH2 WT (V536-D812) [W659A, W777A, F794H solubilizing mutations]; C-thrombin-avi-His6; thrombin cleavage site (C); His6 (C); purchased Biortus
T1 sequence (O60674 536-812 W659A/W777A/F794H): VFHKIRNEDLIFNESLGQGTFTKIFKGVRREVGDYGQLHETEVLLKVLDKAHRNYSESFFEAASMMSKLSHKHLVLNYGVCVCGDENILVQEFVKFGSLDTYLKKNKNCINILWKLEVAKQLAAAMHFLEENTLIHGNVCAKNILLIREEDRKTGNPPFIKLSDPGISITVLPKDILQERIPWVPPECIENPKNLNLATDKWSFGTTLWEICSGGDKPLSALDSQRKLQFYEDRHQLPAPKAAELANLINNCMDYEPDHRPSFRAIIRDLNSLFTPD
Briefly: Surface Plasmon Resonance (SPR) binding assay, JAK2 JH2 domain. The procedure, abridged: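 Kinetics came from 1:1 fits of single-cycle runs at 20 °C: four 3-fold dilutions from 5 uM for JH1 or 500 nM for JH2, 60 s association, and 300 s or 1200 s dissociation respectively. Protein was freshly captured per compound in the presence of 10 uM stabilizer compound, with running buffer of pH 7.5 HEPES/NaCl/glycerol/DTT plus 2% DMSO.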

Assay [2] concerns TF1 JAK2 V617F STAT3 reporter. Nature of the assay: Cellular TF1 STAT3 assay (luciferase reporter), JAK2 V617F. Particulars: Homo sapiens, TF-1, TF1 cells, JAK2 V617F, read-out: Cell PD-TF1 JAK2 V617F STAT3 (IC50). It is filed as cell-based. The procedure, abridged:
(§1)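 Inhibition of JAK2 V617F-mediated STAT3/STAT5 signalling is measured by reporter luminescence in TF1 erythroleukemia cells treated overnight (18-20 h) with a 10-point compound series; DMSO serves as vehicle.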
Background: A reporter such as luciferase makes a cellular process visible.

The subject of assay [3] is TF1 JAK2 V617F STAT5 reporter. Nature of the assay: Cellular TF1 STAT5 assay (luciferase reporter), JAK2 V617F. It is filed as cell-based. The note with it: Homo sapiens, TF-1, TF1 cells, JAK2 V617F, read-out: Cell PD TF1 V617F STAT5 (IC50). The gist of the method: as §1

A word on the Kd: it is the free concentration of one partner at which half of the binding sites on the other are occupied at equilibrium, for simple one-to-one binding. A word on the IC50: it is the concentration that inhibits the measured activity by half. Regarding `CNC(=O)c1nnc(NC(=O)C2CC2)cc1Nc1cccc(-c2ccc(C(=O)N(C)Cc3nc(CN(C)C)cs3)nc2)c1OC` [Compound 253], the Kd in assay [1] lay within 10 to 50 nM. Further, the IC50 in assay [2] lay within 5000 to 100000 nM; in assay [3] it was 500 to 5000 nM.
Take `CNC(=O)c1nnc(NC(=O)C2CC2)cc1Nc1cccc(-c2cnn(C3CN(Cc4nccc5cc[nH]c45)C3)c2)c1OC` [Compound 254]: the Kd in assay [1] lay in the range of 0.01 to 10 nM. For the same compound, the IC50 in assay [2] and in assay [3] was 50 to 500 nM each time.
For the compound `CNC(=O)c1nnc(NC(=O)C2CC2)cc1Nc1cccc(-c2cnn(C3CN(Cc4cccc(C#CCO)n4)C3)c2)c1OC` [Compound 255], the dissociation constant (Kd) in assay [1] lay in the range of 0.01 to 10 nM. Moreover, the IC50 in assay [2] and in assay [3] was 50 to 500 nM each time.
In the case of `COc1c(Nc2cc(NC(=O)C3CC3)nn3cc(C)nc23)ccc(C)c1-c1ccc(C(=O)N(C)Cc2cc(C#N)ccn2)nc1` [Compound 256], the Kd in assay [1] was 0.01 to 10 nM. Moreover, the half-maximal inhibitory concentration (IC50) in assay [2] and in assay [3] was 500 to 5000 nM each time.
As for `CNC(=O)c1nnc(NC(=O)C2CC2)cc1Nc1cccc(-c2ccc(C(=O)N(C)Cc3cn(C)nc3OC)nc2)c1OC` [Compound 257], the Kd in assay [1] is 0.01 to 10 nM. Moreover, the IC50 in assay [2] and in assay [3] was 50 to 500 nM in each case.
`CNC(=O)c1nnc(NC(=O)C2CC2)cc1Nc1cccc(-c2cnn(C3CN(Cc4cccc(C5CCC5)n4)C3)c2)c1OC` [Compound 258]: the Kd in assay [1] lay within 0.01 to 10 nM. Besides, the IC50 in assay [2] and in assay [3] was 50 to 500 nM each time.
Consider `CNC(=O)c1nnc(NC(=O)C2CC2)cc1Nc1cccc(-c2cnn(C3CN(Cc4cccc(C#CC(C)(C)O)n4)C3)c2)c1OC` [Compound 259], for which the Kd in assay [1] lay within 0.01 to 10 nM. The IC50 in assay [2] and in assay [3] was 50 to 500 nM throughout.
With `CNC(=O)c1nnc(NC(=O)C2CC2)cc1Nc1cccc(-c2cnn(C3CN(Cc4cccc(NC(C)=O)n4)C3)c2)c1OC` [Compound 260], the Kd in assay [1] fell in the range of 0.01 to 10 nM. Further, the IC50 in assay [2] and in assay [3] was 50 to 500 nM throughout.
`CNC(=O)c1nnc(NC(=O)C2CC2)cc1Nc1cccc(-c2ccc(C(=O)N(C)Cc3nccc(C#N)n3)nc2)c1OC` [Compound 261] registered a Kd in assay [1] of 0.01 to 10 nM. In addition, the figures for the IC50 in assay [2] and in assay [3] were 50 to 500 nM and 500 to 5000 nM, respectively.
In the same order, the values of `COc1c(Nc2cc(NC(=O)C3CC3)nn3cc(C)nc23)ccc(C)c1-c1ccc(C(=O)N(C)Cc2cn(C)nc2C)nc1` [Compound 262] are 0.01 to 10 nM, 500 to 5000 nM and 5000 to 100000 nM.
In the same order, the values of `CNC(=O)c1nnc(NC(=O)C2CC2)cc1Nc1cccc(-c2ccc(C3CN(Cc4ccn(C)n4)C3)nc2)c1OC` [Compound 263] are 10 to 50 nM, 5000 to 100000 nM and 5000 to 100000 nM.
In the same order, the values of `CNC(=O)c1nnc(NC(=O)C2CC2)cc1Nc1cccc(-c2ccc(C3CN(Cc4cnn(C)c4)C3)nc2)c1OC` [Compound 264] are 50 to 500 nM, 5000 to 100000 nM and 5000 to 100000 nM.
As for `CNC(=O)c1nnc(NC(=O)C2CC2)cc1Nc1cccc(-c2cnn(C3CN(Cc4cccc(C#CCN)n4)C3)c2)c1OC` [Compound 265], in assay [1], the Kd is 0.01 to 10 nM. Besides, the IC50 in assay [2] and in assay [3] was 500 to 5000 nM each time.
Turning to `CNC(=O)c1nnc(NC(=O)C2CC2)cc1Nc1cccc(-c2ccc(C3CN(Cc4cccc(C#N)n4)C3)nc2)c1OC` [Compound 266], the Kd in assay [1] lay in the range of 0.01 to 10 nM. Moreover, the IC50 in assay [2] and in assay [3] was 500 to 5000 nM each time.
In turn, `CNC(=O)c1nnc(NC(=O)C2CC2)cc1Nc1cccc(-c2cnn(C3CN(Cc4cccn(C)c4=O)C3)c2)c1OC` [Compound 267] yielded a Kd in assay [1] of 0.01 to 10 nM. The IC50 in assay [2] and in assay [3] was 50 to 500 nM throughout.
For the compound `CNC(=O)c1nnc(NC(=O)C2CC2)cc1Nc1ccc(C)c(-c2cn(C3CN(Cc4cccc(C#N)n4)C3)nn2)c1OC` [Compound 268], in assay [1], the Kd lay in the range of 0.01 to 10 nM. The IC50 in assay [2] and in assay [3] was 500 to 5000 nM in each case.
With `CNC(=O)c1nnc(NC(=O)C2CC2)cc1Nc1ccc(C)c(-c2cn(C3CN(Cc4cccc(C)n4)C3)nn2)c1OC` [Compound 269], the Kd in assay [1] was in the range of 0.01 to 10 nM. For the same compound, the IC50 in assay [2] and in assay [3] was 500 to 5000 nM in each case.
Turning to `CNC(=O)c1nnc(NC(=O)C2CC2)cc1Nc1cccc(-c2ccc(C(=O)N(C)Cc3ncc(CN(C)C)s3)nc2)c1OC` [Compound 271], the Kd in assay [1] is 0.01 to 10 nM. The IC50 in assay [2] and in assay [3] was 500 to 5000 nM each time.
As to `CNC(=O)c1nnc(NC(=O)C2CC2)cc1Nc1ccc(C#N)c(-c2ccc(C(=O)N(C)Cc3cc(C#N)ccn3)cc2)c1OC` [Compound 272], the dissociation constant Kd in assay [1] was in the range of 0.01 to 10 nM. Also, the IC50 in assay [2] and in assay [3] was 500 to 5000 nM in each case.
Take `CNC(=O)c1nnc(NC(=O)C2CC2)cc1Nc1cccc(-c2cnn(C3CN(Cc4cccc(NS(C)(=O)=O)n4)C3)c2)c1OC` [Compound 273]: the Kd in assay [1] was 0.01 to 10 nM. The IC50 in assay [2] and in assay [3] was 500 to 5000 nM each time.
For `CNC(=O)c1nnc(NC(=O)C2CC2)cc1Nc1cccc(-c2cnn(C3CN(Cc4cccc(C5(O)CC5)n4)C3)c2)c1OC` [Compound 274], the Kd in assay [1] was 0.01 to 10 nM. The half-maximal inhibitory concentration (IC50) in assay [2] and in assay [3] was 50 to 500 nM in each case.
Regarding `CNC(=O)c1nnc(NC(=O)C2CC2)cc1Nc1cccc(-c2cnn(C3CN(Cc4cccc(C(=O)N(C)C)n4)C3)c2)c1OC` [Compound 275], the Kd in assay [1] lay within 0.01 to 10 nM. In addition, the half-maximal inhibitory concentration (IC50) in assay [2] and in assay [3] was 10 to 50 nM each time.
In turn, `CNC(=O)c1nnc(NC(=O)C2CC2)cc1Nc1cccc(-c2cnn(C3CN(Cc4cccc(C5CC5)n4)C3)c2)c1OC` [Compound 276] showed an equilibrium dissociation constant (Kd) in assay [1] of 0.01 to 10 nM. Besides, the IC50 in assay [2] and in assay [3] was 50 to 500 nM each time.
Take `CNC(=O)c1nnc(NC(=O)C2CC2)cc1Nc1cccc(-c2cnn(C3CN(Cc4cccc(C(C)(C)C#N)n4)C3)c2)c1OC` [Compound 277]: in assay [1], the equilibrium dissociation constant (Kd) is 0.01 to 10 nM. The IC50 in assay [2] and in assay [3] was 50 to 500 nM each time.
The compound `CNC(=O)c1nnc(NC(=O)C2CC2)cc1Nc1ccc(C)c(-c2ccc(C(=O)N(C)Cc3cn(C)nc3C)cn2)c1OC` [Compound 278] returned a Kd in assay [1] of 0.01 to 10 nM. Moreover, the IC50 in assay [2] and in assay [3] was 500 to 5000 nM throughout.
Consider `CNC(=O)c1nnc(NC(=O)C2CC2)cc1Nc1cccc(-c2ccc(C3CN(Cc4cc(C#N)ccn4)C3)nc2)c1OC` [Compound 279], for which, in assay [1], the Kd lay within 10 to 50 nM. In addition, the IC50 in assay [2] and in assay [3] was 5000 to 100000 nM throughout.
`CNC(=O)c1nnc(NC(=O)C2CC2)cc1Nc1cccc(-c2cncc(C3CN(Cc4ccccn4)C3)c2)c1OC` [Compound 280] returned a dissociation constant Kd in assay [1] of 10 to 50 nM. Besides, the half-maximal inhibitory concentration (IC50) in assay [2] and in assay [3] was 5000 to 100000 nM each time.
In assay [1], `CC#Cc1cccc(CN2CC(n3cc(-c4cccc(Nc5cc(NC(=O)C6CC6)nnc5C(=O)NC)c4OC)cn3)C2)n1` [Compound 281] gave a Kd of 0.01 to 10 nM. Further, the IC50 in assay [2] and in assay [3] was 50 to 500 nM in each case.
With `CNCc1cnc(CN(C)C(=O)c2ccc(-c3cccc(Nc4cc(NC(=O)C5CC5)nnc4C(=O)NC)c3OC)cn2)s1` [Compound 282], in assay [1], the Kd is 0.01 to 10 nM. Further, the half-inhibitory concentration (IC50) in assay [2] and in assay [3] was 500 to 5000 nM in each case.
`CNC(=O)c1nnc(NC(=O)C2CC2)cc1Nc1cccc(-c2ccc(C(=O)N(C)Cc3cnn(C4CC4)c3C)nc2)c1OC` [Compound 284] had a Kd in assay [1] of 0.01 to 10 nM. Further, the IC50 in assay [2] and in assay [3] was 500 to 5000 nM throughout.
On to `CNC(=O)c1nnc(NC(=O)C2CC2)cc1Nc1cccc(-c2ccc(C(=O)N(C)Cc3cn(C4CC4)nc3C)nc2)c1OC` [Compound 285], for which the Kd in assay [1] was in the range of 0.01 to 10 nM. The concentration for half-maximal inhibition (IC50) in assay [2] and in assay [3] was 500 to 5000 nM each time.
As for `CNC(=O)c1nnc(NC(=O)C2CC2)cc1Nc1cccc(-c2cnn(C3CN(Cc4cccc5ccnn45)C3)c2)c1OC` [Compound 287], in assay [1], the Kd is 0.01 to 10 nM. The IC50 in assay [2] and in assay [3] was 50 to 500 nM each time.
On to `CNC(=O)c1nnc(NC(=O)C2CC2)cc1Nc1cccc(-c2ccc(C3CN(Cc4cccnc4C(F)F)C3)nc2)c1OC` [Compound 288], for which the Kd in assay [1] was 50 to 500 nM. The IC50 in assay [2] and in assay [3] was 5000 to 100000 nM each time.
The compound `CNC(=O)c1nnc(NC(=O)C2CC2)cc1Nc1ccc(C)c(-c2cnc(C(=O)N(C)Cc3cc(C(F)F)ccn3)c(F)c2)c1OC` [Compound 289] had a Kd in assay [1] of 0.01 to 10 nM. For the same compound, the IC50 in assay [2] and in assay [3] was 50 to 500 nM throughout.
For `CNC(=O)c1nnc(NC(=O)C2CC2)cc1Nc1cccc(-c2cnn(C3CN(Cc4cccc(C5(C#N)CCC5)n4)C3)c2)c1OC` [Compound 290], the Kd in assay [1] is 0.01 to 10 nM. Further, the IC50 in assay [2] and in assay [3] was 50 to 500 nM each time.
In turn, `CNC(=O)c1nnc(NC(=O)C2CC2)cc1Nc1cccc(-c2ccc(C3CN(Cc4cnccc4C(F)F)C3)nc2)c1OC` [Compound 291] returned a Kd in assay [1] of 10 to 50 nM. In addition, the half-inhibitory concentration (IC50) lay within 5000 to 100000 nM in assay [2] and 500 to 5000 nM in assay [3].
